The text below walks through data of PubChem BioAssay AID488890 (Southern Research Specialized Biocontainment Screening …, 2010).

pIC50: −log10 of the molar value. Results filed as inconclusive are left out. Activity calls are given as the source filed them. How the calls were made is not given here.

This test concerns Mycobacterium tuberculosis non-replicating, growth inhibition. Put plainly: growth inhibition of non-replicating M. tuberculosis (AID 488890).
For the compound `CC1Cc2cc(/C=C3/SC(=S)NC3=O)ccc2O1` (stereo not drawn), the pIC50 was 5.52. On to `CSc1nn(-c2ccc(C(=O)OCC(=O)NC(=O)NC(C)C)cc2)c(=S)s1`, for which the IC50 is 16 µM (inactive). Take `CCN(CC)CCCN(C(=O)c1ccco1)c1nc(-c2ccc(C)cc2)cs1`: the IC50 is 21.9 µM (inactive). As to `COc1cc(/C=C2\C(=O)N(c3ccc(S(N)(=O)=O)cc3)N=C2C)ccc1OC(=O)c1ccco1`, the pIC50 is 5.13. On the same count and under the same terms, in the case of `O=C(O)c1ccccc1-c1ccccc1C(=O)Nc1nc2ccccc2s1` it was 5.20; in that of `O=C(OCc1ccc(Cl)c(Cl)c1)c1ccccn1`, 5.64. With `CCN(CC)S(=O)(=O)c1ccc(C(=O)OCn2nnc3ccccc3c2=O)cc1`, the IC50 is 15.4 µM (inactive).

`O=C(NCC1CCN(c2ccc(S(=O)(=O)N3CCOCC3)cc2)CC1)c1ccc(Cl)cc1`: the IC50 was 24.1 µM (inactive). In the case of `Cc1ccc(NC(=S)C2=C(O)c3sccc3N(C)S2(=O)=O)cc1`, the IC50 was 22.3 µM (inactive). For `CCCS(=O)(=O)c1nnnn1-c1cccc(OC)c1`, the pIC50 was 5.45. On to `COc1ccc(-c2nnc(NC(=O)c3ccc(S(=O)(=O)N4COCC4(C)C)cc3)o2)cc1`, for which the IC50 is 11.2 µM (inactive). Consider `CCCNC1=C(N(C(C)=O)c2cccc(F)c2)C(=O)c2ccccc2C1=O`, for which the pIC50 is 5.23. With `COC(=O)COc1ccc(S(=O)(=O)N2CCCCCC2)cc1`, the pIC50 is 5.38. As for `CCOc1ccccc1OC(=O)c1cc2ccccc2oc1=O`, the IC50 was 21.5 µM (inactive).

Regarding `COc1ccc(C2=NOC(COC(=O)c3ccc4ccccc4n3)C2)cc1` (stereo not drawn), the pIC50 is 5.27. For the compound `CC(C)N1CCc2c(sc(NC(=O)CCS(=O)(=O)c3ccccc3)c2C#N)C1`, the IC50 is 39.6 µM (inactive). As to `Nc1ccccc1Nc1ccccc1`, the pIC50 is 5.74. With `COc1ccc(C(CCNCc2ccc(OC(C)C)cc2)C(C)C)cc1` (stereo not drawn), the IC50 is 10.2 µM (inactive). As to `CC(/C=C/c1ccco1)=N\NC(=O)c1cccc(Cl)c1`, the pIC50 was 5.31. Still for that read-out and setting: then `O=C(CCNc1cccc(F)c1)c1cccc([N+](=O)[O-])c1`, with 5.27; and `Cc1cc(NC2CCCCC2)nc(NCc2ccccc2)n1`, with 5.44. For the compound `O=C(Nc1nc(-c2ccccn2)cs1)c1ccc([N+](=O)[O-])o1`, the IC50 is 25.5 µM (inactive). Take `O=C(Oc1cccc([N+](=O)[O-])c1)c1ccc2c(=O)n3c(nc2c1)CCC3`: the pIC50 was 5.17. For `COc1ccc(C(=O)Cn2c(C)nc([N+](=O)[O-])c2Br)cc1`, the IC50 is 19.9 µM (inactive). In the case of `O=C(Nc1nnc(-c2ccco2)o1)c1ccc(Cl)s1`, the IC50 was 11.2 µM (inactive). As to `CCOc1ccc(C(=O)C(CN2CCOCC2)c2ccccc2)cc1` (stereo not drawn), the pIC50 was 5.44. For the compound `CC(=O)OCCNc1cc(SCc2ccco2)c2nonc2c1[N+](=O)[O-]`, the pIC50 is 5.52. In the case of `CCc1cc(OCCCCNCc2ccccc2)ccc1Cl`, the IC50 is 11.3 µM (inactive). In the case of `O=C(Nc1nc2ccccc2[nH]1)c1cccc(Cl)c1`, the pIC50 was 5.04. `Cc1ccc(NC(=O)COc2ccc3c(c2)CCC3)nc1`: the pIC50 is 5.18. Same read-out and setting: then `Cc1ccc(NC(=O)CN(C)C2CCCCC2)cc1Br`, with 6.46. In the case of `O=C1CC(N2CCN(c3ccccc3)CC2)C(=O)N1CCc1ccccc1` (stereo not drawn), the IC50 is 14 µM (inactive). For the compound `O=C(OCn1ncc(Br)c(Br)c1=O)c1ccccc1Cl`, the pIC50 is 5.20.

Turning to `O=C(NNC(=O)c1ccccn1)c1cccc([N+](=O)[O-])c1`, the IC50 is 11 µM (inactive). The same measure, in the same setting: then `C/C(=N/NC(=O)c1ccncc1)C1=C(O)CC(C)(C)CC1=O`, with 13 µM (inactive); and `Cc1nc2ccc(OC(=O)c3ccccc3)cc2s1`, with 20.9 µM (inactive).

For the compound `O=C(COc1ccccc1)Nc1ccc(Cl)cn1`, the pIC50 was 5.12. Turning to `O=c1[nH]c2ccccc2c2oc(CCl)nc12`, the pIC50 is 5.37.

Consider `CCC(=O)c1ccc(OCC(=O)OCC(=O)N2CCc3ccccc3C2)cc1`, for which the IC50 was 13 µM (inactive). With `O=C(COc1ccc(Cl)cc1)Nc1ccc2[nH]ncc2c1`, the IC50 is 26.5 µM (inactive). As for `COc1ccc(/C=N/NC(=O)c2ccncc2)cc1CN1CCOCC1`, the pIC50 is 5.36. With `CSc1nc(=S)cc(C)[nH]1`, the pIC50 was 5.21. Take `CC1CC(C)CN(CCOCCSc2ccc(Cl)cc2)C1` (stereo not drawn): the IC50 is 30.7 µM (inactive).

For `CC(NC(=O)c1cccc(F)c1)C1CC2CCC1C2` (stereo not drawn), the negative-log IC50 (pIC50) was 6.80. Regarding `Cc1cc(C)n(-c2ccc(C(=O)Oc3ccc4c(c3)OCO4)cc2)n1`, the IC50 was 11.9 µM (inactive). In the case of `O=[N+]([O-])c1cncc([N+](=O)[O-])c1Nc1cccc(O)c1`, the IC50 was 22.3 µM (inactive). Turning to `Cc1nnc(N/N=C/c2ccc(Br)cc2)n1N`, the negative logarithm of the IC50 (pIC50) is 5.89. Consider `O=c1c2cc(Br)ccc2nc(-c2ccc([N+](=O)[O-])cc2)n1O`, for which the pIC50 is 6.00. In the case of `O=C(N/N=C/C(Br)=C/c1ccccc1)c1cnccn1`, the IC50 is 13.1 µM (inactive).

On to `Cc1ccc(CO/N=C/c2c(O)cc(C)oc2=O)cc1`, for which the IC50 is 16.6 µM (inactive). Turning to `C/C(=N\NC(=O)c1cccs1)c1ccc2c(c1)OCO2`, the pIC50 was 5.06.

As to `O=C(Oc1ccccc1)c1ccc(COC(=O)c2cnccn2)cc1`, the IC50 is 10.7 µM (inactive). As for `O=C(COC(=O)CCN1C(=O)/C(=C\C=C\c2ccccc2)SC1=S)Nc1cc(F)ccc1F`, the IC50 was 13.9 µM (inactive). For `O=C(N/N=C/c1ccc([N+](=O)[O-])o1)c1ccc(NS(=O)(=O)c2cccs2)cc1`, the pIC50 is 5.01. For the compound `COc1ccc(/C=C2\Sc3ccc(C(=O)NCCN4CCCCCC4)cc3N(C)C2=O)cc1`, the IC50 was 12.7 µM (inactive).

Consider `CC(C)Cn1c(N)c(C(=O)COC(=O)c2ccc([N+](=O)[O-])o2)c(=O)n(C)c1=O`, for which the negative-log IC50 (pIC50) is 5.54. With `O=C(N/N=C/c1ccccn1)c1ccccc1`, the IC50 is 14.6 µM (inactive). On the same count and under the same terms, then `Cc1ccc(NC(=O)COC(=O)C(NS(=O)(=O)c2ccc(Cl)cc2)C(C)O)cc1C` (stereo not drawn), with 22.1 µM (inactive). Consider `Nc1ccc2nc3c(c(Cl)c2c1)CCCC3`, for which the IC50 was 13.4 µM (inactive).

Regarding `O=C1/C(=C/c2ccco2)CCC1C1CCCC1` (stereo not drawn), the IC50 is 13.8 µM (inactive). Take `C/C(=N\NC(=O)c1ccc(Cl)cc1)c1ccccn1`: the pIC50 was 6.05. `c1ccc(-c2n[nH]c(-c3ccccn3)n2)nc1`: the pIC50 is 5.22. On to `COc1ccc(C(=O)COC(=O)COc2ccc(C)c(C)c2)cc1`, for which the IC50 was 20.7 µM (inactive). With `CC1=NN(C(=O)c2ccccc2)C(O)(c2ccc(Br)cc2)C1` (stereo not drawn), the pIC50 is 6.21.

Consider `CSc1ccc(C(=O)C2CCCN(C(=O)c3ccc4c(c3)no[n+]4[O-])C2)cc1` (stereo not drawn), for which the negative-log IC50 (pIC50) is 5.39. Consider `Cc1ccc2[nH]c3c(c2c1)CCCC3NCCO` (stereo not drawn), for which the IC50 was 13.7 µM (inactive). Consider `Cc1cccc(OCC(=O)NNC(=O)c2cc3ccccc3oc2=O)c1`, for which the pIC50 is 5.21. For the compound `CCOc1ccc(C(=O)N/N=C/c2cccc3cccnc23)cc1`, the negative logarithm of the IC50 (pIC50) is 5.33. Still for that read-out and setting: in the case of `O=C(c1cc([N+](=O)[O-])cc([N+](=O)[O-])c1)N(Cc1nnc(-c2ccccc2Cl)o1)C1CC1` it was 5.35. Turning to `COc1ccc2nc(/N=C(\N)NC(=O)C(C)(C)C)nc(C)c2c1`, the IC50 is 17.4 µM (inactive).

Regarding `CCCCCCOC(=O)C(C#N)c1nc2ccccc2nc1N1CCN(CC)CC1` (stereo not drawn), the IC50 was 13.9 µM (inactive).

Regarding `COc1cccc(CN2CCC(N(CCc3ccccc3)Cc3ccccc3)CC2)c1OC`, the IC50 was 14.3 µM (inactive). Regarding `NC1=NC[C@H](Cc2ccc(O)cc2)N1CCc1cccc2ccccc12`, the negative-log IC50 (pIC50) is 5.09. As for `O=C1C=CC(=O)N1N(c1ccccc1)c1ccccc1`, the pIC50 was 5.06. With `CC(C)[C@@H]1CC[C@@H](C)C[C@H]1OC(=O)C[n+]1cc(-c2ccc(Cl)cc2)n2c1CCCCC2`, the pIC50 was 5.66. On the same count and under the same terms, in the case of `Cc1ccc(C(=O)OCC(=O)N2CCCCCC2)c(O)c1` it was 5.05; in that of `O=C(C1CCN(C2CC(=O)N(Cc3ccccc3)C2=O)CC1)N1CCCCCC1` (stereo not drawn), 5.14; in that of `CCOC(=O)c1ccc(COC(=O)c2ccc(-c3nnc(-c4ccccc4)o3)cc2)o1`, 5.19. For `C/C(=N\NC(=O)c1ccccc1OCc1ccc(F)cc1)c1ccccn1`, the pIC50 is 5.55. Consider `CC1=C/C(=N\OS(=O)(=O)c2ccccc2)C(C)=CC1=O`, for which the pIC50 was 6.18.

Take `COc1ccc(C(=O)CCN2CCCCCC2)cc1`: the pIC50 is 5.69. As for `CCSc1ncc(/C=N/Nc2ccc(Cl)cc2)n1C`, the pIC50 was 5.18. As for `COc1cc2c(cc1OC)CN(C(=O)c1ccc([N+](=O)[O-])o1)CC2`, the pIC50 was 5.89.

As for `CC(C)CCNCC(O)CON=C1c2ccccc2-c2ccccc21` (stereo not drawn), the pIC50 was 5.03.

For `COc1ccc(NC(=O)c2cc([N+](=O)[O-])ccc2O)cc1`, the pIC50 was 5.11.

For `C=CCn1c(=O)c(C(=O)Nc2cccnc2)c(O)c2ccccc21`, the pIC50 is 5.12. With `OCC#CCSc1nnc(-c2ccc(Br)cc2)o1`, the pIC50 was 6.48. Regarding `CN1C(=O)CC(Sc2ccccc2C(=O)O)C1=O` (stereo not drawn), the IC50 is 23.6 µM (inactive). Consider `O=C1CC(N2CCC(C(=O)N3CCCCC3)CC2)C(=O)N1` (stereo not drawn), for which the IC50 is 12.3 µM (inactive).

With `Cc1[nH]nc2c1C(c1ccc(OC(=O)c3ccco3)cc1)C(C#N)=C(N)O2` (stereo not drawn), the pIC50 is 5.17. With `CCN1C(=O)CC(N2CCC(c3nc4ccccc4[nH]3)CC2)C1=O` (stereo not drawn), the IC50 is 34.2 µM (inactive). Regarding `O=C(c1ccc([N+](=O)[O-])o1)N1CCN(c2nc3ccc(F)cc3s2)CC1`, the pIC50 was above 7.00. Regarding `Cc1cccc(NC(=O)c2cc3ccccc3oc2=O)c1`, the IC50 was 10.5 µM (inactive).

As to `Cc1ccc(-c2nnc(C)c(N3CCCC3)n2)cc1`, the pIC50 is 5.05. For `O=C1CCCCC1Sc1nnc(-c2ccc3c(c2)OCO3)o1` (stereo not drawn), the negative-log IC50 (pIC50) is 5.74. Take `COc1ccc(NC(=O)c2ccc(COCC(F)(F)C(F)F)cc2)cc1`: the IC50 is 12.6 µM (inactive). Turning to `NC(=O)COC(=O)c1sc2ccccc2c1Cl`, the pIC50 is 5.08. For the compound `O=c1c2ccccc2sn1-c1ccccc1`, the pIC50 is 5.17.
